Measurements taken from patent US20070048367A1, “Herbal composition for treating morning sickness” (MOM Enterprises, Inc., priority 2005, published 2007).
Structures can show the parent of a compound that is named as a salt.

Test system: morning sickness
Test: Doctor survey: composition compared with other morning sickness remedies tried during the same pregnancy
Assay type: in vivo, pregnant patients
Conditions: for Patients' preference, composition versus the named remedy: overall, in words
Source text: Doctors across the United States were each sent four bottles of the composition described herein, and were invited to allow their pregnant patients to try the composition as a remedy for morning sickness. The same doctors were also sent a survey inquiring about the patients'experience with the composition, the other remedies used, and how the composition disclosed herein compared with the other remedies.
The survey also asked about other known morning sickness remedies. […] Some of the other remedies included Reglan® (metochlopramide, commercially available from Robins Co., Richmond, Va.), Emetrol® (dextrose, levulose, phosphoric acid, commercially available from Pfizer, Inc., New York, N.Y.), Mylanta® (calcium carbonate, magnesium hydroxide, commercially available from Johnson & Johnson, Merck Consumer Pharmaceuticals Co., Fort Washington, Pa.), Premesis Rx® (calcium carbonate, vitamin B12, folic acid, vitamin B6, commercially available from KV Pharmaceutical Co., St. Louis, Mo.), Compazine® (prochlorperazine, commercially available from SmithKline Beecham, Philadelphia, Pa.), and meclizine (commercially available under the tradename Antivert® from Pfizer, Inc., New York, N.Y.).
Regardless of whether they tried one or more remedies besides the disclosed composition, each doctor was asked, for each patient: did the composition work 1) better than other products or combinations, 2) better than some, but not as well as others, or 3) not as well as other products or combinations.
Another question in the survey asked the doctors what products each patient took besides the composition, and then whether the composition worked 1) better than other products or combinations, 2) better than some, but not as well as others, or 3) not as well as other products or combinations.

[1] = composition versus the named remedy, the two taken alone or with other remedies
[2] = patients who tried only the named remedy or combination besides the composition
[3] = composition versus the named remedy, the two taken alone or with other remedies, hydrochloride

Structure (SMILES)	Percent of Patients for whom the Composition Did Not Work as Well [1] [%]	Percent of Patients for whom the Composition worked Better [1] [%]	Patients for whom the composition definitely worked better than the remedy/remedies tried in addition [2]	Patients' preference, composition versus the named remedy	further results
CN1CCN(CCCN2c3ccccc3Sc3ccc(Cl)cc32)CC1 [Compazine ®, prochlorperazine]	29	43	better for 3 patients	–	–
Cc1ncc(CO)c(CO)c1O.Cl [Vitamin B6, pyridoxine hydrochloride]	–	–	–	like the composition better	Patients for whom the composition definitely worked better than the remedy/remedies tried in addition (in vivo): better for 7 patients; Percent of Patients for whom the Composition Did Not Work as Well (in vivo): 11%
CC(CN1c2ccccc2Sc2ccccc21)N(C)C (stereo not drawn) [Promethazine ®, Promethazine]	100	0	–	–	–
Cc1nccn1CC1CCc2c(c3ccccc3n2C)C1=O (stereo not drawn) [Zofran ®, ondansetron hydrochloride]	–	36	better for 5 patients	prefer	Percent of Patients for whom the Composition Did Not Work as Well [3]: 42%; Percent of Patients for whom the Composition Did Not Work as Well (composition versus the named remedy, the two taken alone or with other remedies, listed as Zofran®, hydrochloride): at least 36%
Cc1cccc(CN2CCN(C(c3ccccc3)c3ccc(Cl)cc3)CC2)c1 (stereo not drawn) [Meclizine ®, meclizine]	0	100	–	–	–
CC(CN1c2ccccc2Sc2ccccc21)N(C)C (stereo not drawn) [Phenergan ®, promethazine hydrochloride]	–	–	better for 4 patients	prefer	Percent of Patients for whom the Composition Did Not Work as Well [3]: 32%; Percent of Patients for whom the Composition worked Better [3]: 40%
CCN(CC)CCNC(=O)c1cc(Cl)c(N)cc1OC [Reglan ®, metochlopramide]	60	0	–	–	–
